Values quoted from earlier work in patent US20240207248A1, “METHODS, KITS AND COMPOSITIONS FOR REDUCING CHROMOSOMAL INSTABILITY IN CANCER CELLS” (BARUCH S. BLUMBERG INSTITUTE, priority 2021, published 2024).

System: aneuploid primary mouse embryonic fibroblasts carrying Robertsonian fusion chromosomes
Settings: energy and proteotoxic stress-inducing compounds

| SMILES | selectivity against aneuploid primary mouse embryonic fibroblasts |
| --- | --- |
| C=CCNC1=C2C[C@@H](C)C[C@H](OC)[C@H](O)[C@@H](C)/C=C(\C)[C@H](OC(N)=O)[C@@H](OC)/C=C\C=C(/C)C(=O)NC(=CC1=O)C2=O [17-AAG] | showed selectivity |
| NC(=O)c1ncn([C@@H]2O[C@H](CO)[C@@H](O)[C@H]2O)c1N [AICAR] | showed selectivity |
